Measurements from the OligoGym collection.
After the bases stand the sugars from the 5' end (letter, count) and the backbone: PS all phosphorothioate, else s phosphorothioate and o phosphodiester by linkage. Methylation of C is not given here. l = locked nucleic acid (LNA); d = 2'-deoxy (DNA)

Molecular target: SNHG14
Details: ASO
[1] = Mouse Primary Neuronal Cell, 0.005 µM

Sequence	target mRNA inhibition (Human Neuronal Cell, 7.5 µM) [%]	target mRNA inhibition (Human Neuronal Cell, 0.2 µM) [%]	target mRNA inhibition (Human Neuronal Cell, 1 µM) [%]	other results
AAAATCTCAACTACCATTT (sugars l3 d10 l6, PS)	48			
AAAATCTCAACTACCATTT (sugars l6 d9 l4, PS)	23			
AAAATCTCAACTACCATTT (sugars llddlldddddddlldlll, PS)	52			
AAAATCTCAACTACCATTTT (sugars lddllldddddddldldlll, PS)	36			
AAAATCTCAACTACCATTTT (sugars llddllddddddddddldll, PS)	23			
AAAATTATTTATACACCATC (sugars l1 d2 l2 d9 l6, PS)	56			
AAAATTATTTATACACCATC (sugars ldlllllddddddlldddll, PS)	61			
AAAATTATTTATACACCATC (sugars lllllllddddddldlddll, PS)	49			
AAACTCTTGCATCTACT (sugars l2 d13 l2, PS)		19	41	
AAACTGTACACCTACT (sugars l2 d10 l4, PS)		31	44	
AAAGATCATTCTCAACAA (sugars l5 d10 l3, PS)	64			
AAATATTGCCACCATT (sugars l2 d10 l4, PS)		51	63	
AAATCTCAACTACCATTTTT (sugars ldlddldddddddllddlll, PS)	29			
AAATCTCAACTACCATTTTT (sugars ldllldddddddddddldll, PS)	45			
AAATCTCAACTACCATTTTT (sugars llldldddddddddlldlll, PS)	-2			
AAATCTCAACTACCATTTTT (sugars llldldlddddddddddlll, PS)	34			
AAATTTCCAAACCTTTC (sugars l2 d11 l4, PS)		42	53	
AAGATCATTCTCAACAAT (sugars lllldldddddddlldll, PS)	19			
AATTATTTATACACCATCAT (sugars lddddldddddddlldldll, PS)	60			
AATTATTTATACACCATCAT (sugars lldldlddddddddllldll, PS)	59			
AATTTTTTTCTTACTATCTT (sugars l1 d12 l1 d2 l4, PS)	62			
AATTTTTTTCTTACTATCTT (sugars ldlllldddddddlddddll, PS)	55			

Sequence	target mRNA inhibition (Human Neuronal Cell, 7.5 µM) [%]	target mRNA inhibition (Human Neuronal Cell, 0.2 µM) [%]	target mRNA inhibition (Human Neuronal Cell, 1 µM) [%]	other results
AATTTTTTTCTTACTATCTT (sugars llddlldddddddldlldll, PS)	61			
AATTTTTTTCTTACTATCTT (sugars lldldlddddddddlddlll, PS)	43			
ACAACTTCTATCATAC (sugars l3 d10 l3, PS)		44	55	
ACACATCTTGTATACA (sugars l4 d10 l2, PS)		49	56	
ACATCTCATACTTGCT (sugars l4 d10 l2, PS)				target mRNA inhibition [1]: 94.8%
ACATCTCATACTTGCTT (sugars l2 d13 l2, PS)		1	8	target mRNA inhibition (Human Neuronal Cell, 5 µM): 7%; target mRNA inhibition [1]: 90.7%
ACATTATTAACCACCT (sugars l3 d10 l3, PS)		62	64	
ACCACCTTAAGTAACA (sugars l4 d10 l2, PS)		27	33	
ACCTACATCTCATACT (sugars l4 d10 l2, PS)		14	-14	target mRNA inhibition (Human Neuronal Cell, 5 µM): 33%; target mRNA inhibition [1]: 93.8%
ACTCTGCAATACACCAA (sugars l4 d8 l1 d2 l2, PS)	57			
ACTCTGCAATACACCAA (sugars lldllddddddllddll, PS)	38			
ACTGTTTATACCCTTTC (sugars l1 d11 l1 d1 l3, PS)	59			
ACTGTTTATACCCTTTC (sugars l1 d11 l1 d2 l2, PS)	56			
ACTGTTTATACCCTTTC (sugars lddldddddddldddll, PS)	53			
ACTGTTTATACCCTTTCC (sugars l1 d2 l1 d12 l2, PS)	46			
ACTGTTTATACCCTTTCC (sugars l2 d14 l2, PS)		36	50	
ACTGTTTATACCCTTTCC (sugars lddlddddddddddldll, PS)	62			
ACTTAATTATACTTCC (sugars l4 d10 l2, PS)		62	64	
ACTTCACACCTATTATAT (sugars l3 d12 l3, PS)		21	45	
AGATCATTCTCAACAATT (sugars l3 d1 l1 d9 l4, PS)	43			
AGATCATTCTCAACAATT (sugars ldldlldddddddlllll, PS)	32			
